Read-outs that look alike come from different tables or passages of the source.
Molecular target: T1, AKR1C2 (Homo sapiens, UniProt P52895)
T1 construct: made in house
T1 sequence (P52895 1-323): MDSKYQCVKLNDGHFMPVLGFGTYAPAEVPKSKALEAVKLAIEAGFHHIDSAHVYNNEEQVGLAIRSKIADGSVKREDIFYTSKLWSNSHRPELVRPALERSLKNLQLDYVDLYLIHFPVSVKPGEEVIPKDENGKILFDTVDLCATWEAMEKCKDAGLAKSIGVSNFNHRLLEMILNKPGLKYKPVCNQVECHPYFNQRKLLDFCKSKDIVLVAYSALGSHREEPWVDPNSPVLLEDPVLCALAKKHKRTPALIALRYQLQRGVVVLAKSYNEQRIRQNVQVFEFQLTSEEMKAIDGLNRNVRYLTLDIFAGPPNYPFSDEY
Assay: Inhibition of recombinant AKR1C2, oxidation of 1-acenaphthenol, progress-curve analysis
Assay type: biochemical
Settings: for k+3: irreversible binding of second inhibitor molecule to E-NADH-I; for fold less efficient inhibition of AKR1C2 compared to AKR1C1: from K3 values; for k+2: irreversible binding of second inhibitor molecule to E-NAD-I
Method: To investigate the effect of ten selected ruthenium compounds, we measured their effect on the time course of oxidation of the artificial substrate 1-acenaphtenol by recombinant enzymes AKR1C1–3. The recombinant enzymes AKR1C1–AKR1C3 were prepared as described previously ([Brozic et al., 2006]). Since the artificial substrate is racemic, the oxidation follows a double exponential pattern as described previously ([Traven et al., 2015]). The in vitro catalytic activity of AKR1C1–3 enzymes was determined spectrophotometrically by monitoring the increase in NADH absorbance at 340 nm (ε(λ340) = 6220 M^−1cm^−1) in the presence of the substrate 1-acenaphthenol. Enzymatic reactions (300 µL) were performed in 100 mm potassium phosphate buffer (pH 9.0), 0.005% (v/v) TritonX-114, 5% (v/v) DMSO, containing 2.3 mm NAD^+ and 1-acenaphthenol at final concentrations of 90, 180, and 250 µM for AKR1C1, AKR1C2, and AKR1C3, respectively. A total of 5 µL of a tested compound in DMSO was added to the reaction mixture. The final concentrations of the tested compounds ranged from 1 to 200 μM, depending on the extent of inhibition (Supplementary Data). The reaction was started by adding 15 µL of AKR1C1, AKR1C2, or AKR1C3 dissolved in 1x PBS (pH 7.3) at final concentrations of 0.11, 0.16, and 1.5 µM, respectively. AKR1C1–3 activity was measured at 37°C for 3 h without shaking using a PowerWave XS microplate reader (Biotek; Winooski, VT, United States). Measurements at seven different concentrations were performed in duplicates or triplicates (Supplementary Figures S2). To mechanistically explain all the obtained progress curves for each ruthenium complex on each enzyme by a common reaction scheme, we extended the originally proposed scheme so that the interaction of the ruthenium complex with apo- and holoenzyme was allowed to be rapid and followed by a slow irreversible association of a second ruthenium complex molecule. However, the affinity of the Ru complexes for the apoenzymes was much lower so this part was excluded from the proposed kinetic model for clarity (Figure 4).
FIGURE 4 Reaction scheme for the oxidation of 1-acenaphtenol by AKR1C1-3 and its inhibition by ruthenium compounds. E represents apoenzyme, E-NAD and E-NADH represent holoenzyme with bound NAD^+ and NADH, respectively. A and B are enantiomers of substrate 1-acenaphtenol. Symbols which include I (ruthenium compound) represent holoenzyme in complex with one or two inhibitor molecules. KNAD, KNADH, and K2-3 are equilibrium constants and k+2–3 are second-order association rate constants for the binding of the second inhibitor molecule to the enzyme. The progress curves for each enzyme in the presence of ruthenium complexes were analyzed by the WEB server ENZO (https://enzo.cmm.ki.si/) designed exactly for such purposes ([Bevc et al., 2011]).

[1] = AKR1C2, reversible binding to holoenzyme E-NAD, read-out: K2
[2] = AKR1C2, reversible binding to holoenzyme E-NADH, read-out: K3

SMILES	k+3 (AKR1C2)	Ki [1]	Ki [2]	fold less efficient inhibition of AKR1C2 compared to AKR1C1	k+2 (AKR1C2)	inhibitory effect (in words) (AKR1C2)	irreversible inhibition (in words) (AKR1C2)
Cc1ccc(C(C)C)cc1.O=C(C=C([O][Ru][Cl])c1ccc(I)cc1)C(F)(F)F [Compound 1]	7.7 M⁻¹ s⁻¹	305 µM	0.0527 µM	2.5 fold	–	–	–
C1N2CN3CN1CP(C2)C3.Cc1ccc(C(C)C)cc1.F[P-](F)(F)(F)(F)F.O=C(C=C([O][Ru+])c1ccc(I)cc1)C(F)(F)F [Compound 2]	–	80 µM	–	–	12.6 M⁻¹ s⁻¹	–	–
CN(C)c1ccc(C(=CC(=O)C(F)(F)F)[O][Ru][Cl])cc1.Cc1ccc(C(C)C)cc1 [Compound 3, (η^6-p-cymene)chlorido(4,4,4-trifluoro-1-(4-(dimethylamino)phenyl)-1,3-butandionato)ruthenium(II)]	55.4 M⁻¹ s⁻¹	157 µM	1.12 µM	26 fold	7.4 M⁻¹ s⁻¹	–	–
Cc1ccc(C(C)C)cc1.O=C(C=C([O][Ru][Cl])c1ccc2c(c1)OCO2)C(F)(F)F [Compound 5]	7.3 M⁻¹ s⁻¹	–	0.0662 µM	2.8 fold	–	–	–
C1N2CN3CN1CP(C2)C3.Cc1ccc(C(C)C)cc1.F[P-](F)(F)(F)(F)F.O=C(C=C([O][Ru+])c1ccc2c(c1)OCO2)C(F)(F)F [Compound 6]	–	8.3 µM	–	–	172 M⁻¹ s⁻¹	–	–
Cc1ccc(C(C)C)cc1.[Cl-].[O-]c1c(I)cc(Cl)c2cccnc12.[Ru+2] [Compound 7]	11.1 M⁻¹ s⁻¹	–	0.0654 µM	–	–	–	–
C1N2CN3CN1CP(C2)C3.Cc1ccc(C(C)C)cc1.F[P-](F)(F)(F)(F)F.[O-]c1c(I)cc(Cl)c2cccnc12.[Ru+2] [Compound 8]	–	1.6 µM	–	–	929 M⁻¹ s⁻¹	–	–
Cc1ccc(C(C)C)cc1.O=[N+]([O-])c1ccc([O][Ru][Cl])c2ncccc12 [Compound 9, (η ^6-p-Cymene) (nitroxolinato)chloridoruthenium (II)]	–	191 µM	–	–	–	very weak inhibitory effect	virtually no irreversible inhibition
C1N2CN3CN1CP(C2)C3.Cc1ccc(C(C)C)cc1.F[P-](F)(F)(F)(F)F.O=[N+]([O-])c1ccc([O][Ru+])c2ncccc12 [Compound 10, (η ^6-p-cymene)(nitroxolinato)(pta)ruthenium(II) hexafluorophosphate]	–	42.5 µM	–	–	5.1 M⁻¹ s⁻¹	–	–
